Results reported in ChEMBL document CHEMBL4152365, “Discovery of DS-6930, a potent selective PPARγ modulator. Part I: Lead identification” (Bioorg Med Chem, 2018).
Converted amounts (≈) assume the structure as drawn. The source made the active and inactive calls. No cut-off for these calls is given here.

Experiments:
[1] = biological target: T1, Peroxisome proliferator-activated receptor gamma (Homo sapiens, UniProt P37231); assay: Agonist activity at recombinant human GAL4-DBD fused PPARgamma LBD expressed in COS7 cells after 24 hrs by luciferase reporter gene assay; type: cell-based
T1 sequence (P37231 whole entry): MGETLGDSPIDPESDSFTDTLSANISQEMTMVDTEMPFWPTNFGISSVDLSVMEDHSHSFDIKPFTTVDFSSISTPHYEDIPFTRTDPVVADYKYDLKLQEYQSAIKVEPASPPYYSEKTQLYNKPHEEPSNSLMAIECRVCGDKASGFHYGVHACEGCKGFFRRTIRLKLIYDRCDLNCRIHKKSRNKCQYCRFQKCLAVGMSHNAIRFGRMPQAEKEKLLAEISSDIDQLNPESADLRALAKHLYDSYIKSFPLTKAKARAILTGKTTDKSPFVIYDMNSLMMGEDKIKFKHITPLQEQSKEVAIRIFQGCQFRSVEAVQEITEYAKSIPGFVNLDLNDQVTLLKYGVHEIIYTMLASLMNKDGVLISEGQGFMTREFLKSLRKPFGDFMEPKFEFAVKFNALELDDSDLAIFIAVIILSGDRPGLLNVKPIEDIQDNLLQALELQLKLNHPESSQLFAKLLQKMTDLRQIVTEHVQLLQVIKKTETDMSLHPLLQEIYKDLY

[2] = Plasma concentration in hyperglycemic KK/Ta mouse at 30 mg/kg/day, po administered through diet for 3 days measured on day 3 post last dose; type: ADME, organism-based
[3] = biological target: T2, Peroxisome proliferator-activated receptor alpha (Homo sapiens, UniProt Q07869); assay: Agonist activity at recombinant human GAL4-DBD fused PPARalpha LBD expressed in COS7 cells after 24 hrs by luciferase reporter gene assay; type: cell-based
T2 sequence (Q07869 whole entry): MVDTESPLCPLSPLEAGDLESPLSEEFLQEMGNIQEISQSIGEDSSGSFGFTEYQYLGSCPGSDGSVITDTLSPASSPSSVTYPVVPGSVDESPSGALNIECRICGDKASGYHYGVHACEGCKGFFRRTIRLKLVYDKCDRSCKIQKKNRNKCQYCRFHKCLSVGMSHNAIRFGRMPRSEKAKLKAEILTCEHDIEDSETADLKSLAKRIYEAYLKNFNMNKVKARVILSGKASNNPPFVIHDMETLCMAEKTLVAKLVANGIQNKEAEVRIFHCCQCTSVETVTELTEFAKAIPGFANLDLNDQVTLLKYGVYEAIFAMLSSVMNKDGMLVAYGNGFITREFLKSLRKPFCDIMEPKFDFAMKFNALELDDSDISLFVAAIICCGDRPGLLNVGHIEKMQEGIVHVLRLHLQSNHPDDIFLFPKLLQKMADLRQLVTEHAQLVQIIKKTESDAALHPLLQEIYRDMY

[4] = biological target: T3, Peroxisome proliferator-activated receptor alpha (Homo sapiens) (UniProt Q07869); assay: Agonist activity at recombinant human GAL4-DBD fused PPARalpha LBD expressed in COS7 cells at 10 uM after 24 hrs by luciferase reporter gene assay relative to 2-(4-tert-Butylphenoxy)-3-[4-[2-[(4-pyridin-2-ylbenzoyl)amino]ethoxy]; type: cell-based
T3 sequence (whole entry): T2 sequence (Q07869 whole entry)

[5] = Metabolic stability in human liver microsomes after 0.5 hrs; type: ADME, microsome; conditions: read-out: Stability
[6] = biological target: T4, Peroxisome proliferator-activated receptor gamma (Homo sapiens) (UniProt P37231); assay: Agonist activity at recombinant human GAL4-DBD fused PPARgamma LBD expressed in COS7 cells at 10 uM after 24 hrs by luciferase reporter gene assay relative to rosiglitazone; type: cell-based
T4 sequence (whole entry): T1 sequence (P37231 whole entry)

Mus musculus [7] = assay: Glucose-lowering effect in hyperglycemic KK/Ta mouse assessed as reduction in plasma glucose level at 30 mg/kg/day, po administered through diet for 3 days relative to control; type: functional; design: scale not given: the % may be the effect or the level left
[8] = 1-octanol/PBS distribution co-efficient, log D of the compound at […] at pH 7.4 after 30 mins by HPLC-MS/MS analysis; type: physicochemical
Mus musculus [9] = assay: Toxicity in hyperglycemic KK/Ta mouse assessed as body weight gain at 30 mg/kg/day, po administered through diet for 3 days relative to control; type: organism-based; conditions: in vivo, 72 h
[10] = Aqueous thermodynamic solubility of the compound in pH 6.8 solution up to 4 hrs by HPLC-UV analysis; type: physicochemical; conditions: read-out: Therm_solubility
[11] = biological target: T5, Peroxisome proliferator-activated receptor delta (Homo sapiens) (UniProt Q03181); assay: Agonist activity at PPARdelta (unknown origin) at 10 uM
T5 sequence (whole entry): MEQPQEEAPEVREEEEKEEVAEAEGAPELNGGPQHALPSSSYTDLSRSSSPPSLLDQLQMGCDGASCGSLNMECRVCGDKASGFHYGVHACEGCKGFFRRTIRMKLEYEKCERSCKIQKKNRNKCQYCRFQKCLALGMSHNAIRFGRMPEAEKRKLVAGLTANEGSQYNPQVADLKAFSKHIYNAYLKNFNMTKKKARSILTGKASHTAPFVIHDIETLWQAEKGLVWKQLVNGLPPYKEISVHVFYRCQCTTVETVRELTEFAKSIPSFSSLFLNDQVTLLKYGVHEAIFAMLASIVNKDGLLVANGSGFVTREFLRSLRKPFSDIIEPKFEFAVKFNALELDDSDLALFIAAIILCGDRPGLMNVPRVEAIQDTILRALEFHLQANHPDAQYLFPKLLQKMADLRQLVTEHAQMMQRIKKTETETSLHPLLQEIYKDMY

Compound	EC50 [1] [nM]	concentration at 72 h [2] [ng/mL]	EC50 [3] [nM]	Emax [4] [%]	remaining at 0.5 h [5] [%]	Emax [6] [%]	logD at 0.5 h [8]	solubility thermodynamic at 4 h [10] [µg/mL]	Activity [11]	Activity (Mus musculus [7]) [%]	Activity (Mus musculus [9]) [%]
Cn1c(COc2cccc(C(=O)O)c2)nc2ccc(Oc3cc(F)cc(F)c3)cc21	95	360	> 10000	33	–	54	2.3	10 (≈ 24.4 µM)	–	39.5	4.4
Cc1cc(Oc2ccc3nc(COc4ccccc4C#N)n(C)c3c2)cc(C)c1N	391	–	–	–	–	80	–	–	–	–	–
COc1ccc2nc(COc3ccc(CC4SC(=O)NC4=O)cc3)n(C)c2c1 (stereo unspecified) [RIVOGLITAZONE]	43	–	–	–	–	126	–	–	–	–	–
CCc1ccc2ccc(F)cc2c1CNC(=O)c1c(OC)cc(O)c2c1OC1=CC(O)=C(C(C)=O)C(=O)[C@]12C	12	–	–	–	–	64	–	–	–	–	–
Cc1cc(Oc2ccc3nc(COc4ccccc4)n(C)c3c2)cc(C)c1N	318	–	–	–	–	73	–	–	–	–	–
Cn1c(COc2cccc(C(=O)O)c2)nc2ccc(Oc3ccc(F)cc3F)cc21	143	370	> 10000	17	100	77	1.9	11 (≈ 26.8 µM)	–	37.6	3.7
Cc1cc(Oc2ccc3nc(COc4ccc(CC5SC(=O)NC5=O)cc4)n(C)c3c2)cc(C)c1N (stereo unspecified) [EFATUTAZONE]	0.038	–	–	–	–	100	–	–	–	–	–
Cc1cc(Oc2ccc3nc(COc4cccc(C(=O)O)c4)n(C)c3c2)cc(C)c1N.Cl.Cl	–	–	–	–	88	73	1.4	11	–	–	–
Cc1cc(Oc2ccc3nc(COc4cccc(C#N)c4)n(C)c3c2)cc(C)c1N	43	–	–	–	–	92	–	–	–	–	–
CC(=O)c1ccc(OCc2nc3ccc(Oc4cc(C)c(N)c(C)c4)cc3n2C)cc1	340	–	–	–	–	70	–	–	–	–	–
Cl.Cn1c(COc2cccc(C(=O)O)c2)nc2ccc(Oc3ccc4c(c3)CCO4)cc21	87	–	> 10000	8	87	60	1.7	7.6	–	–	–
Cc1cc(Oc2ccc3nc(COc4ccccc4C(=O)O)n(C)c3c2)cc(C)c1N	6090	–	–	–	–	52	–	–	–	–	–
CC(=O)c1ccccc1OCc1nc2ccc(Oc3cc(C)c(N)c(C)c3)cc2n1C	356	–	–	–	–	96	–	–	–	–	–
Cc1cc(Oc2ccc3nc(COc4ccc(C(=O)O)cc4)n(C)c3c2)cc(C)c1N	797	–	–	–	–	91	–	–	–	–	–
Cc1cc(Oc2ccc3nc(COc4ccc(C#N)cc4)n(C)c3c2)cc(C)c1N	395	–	–	–	–	79	–	–	–	–	–
CC(=O)c1cccc(OCc2nc3ccc(Oc4cc(C)c(N)c(C)c4)cc3n2C)c1	65	–	–	–	–	86	–	–	–	–	–

Now from value to molecule, other results behind:

EC50 [1] [nM]	concentration at 72 h [2] [ng/mL]	EC50 [3] [nM]	Emax [4] [%]	remaining at 0.5 h [5] [%]	Emax [6] [%]	logD at 0.5 h [8]	solubility thermodynamic at 4 h [10] [µg/mL]	Activity [11]	Compound	Activity (Mus musculus [7]) [%]	Activity (Mus musculus [9]) [%]
118	160	> 10000	39	100	71	2	–	–	Cl.Cn1c(COc2cccc(C(=O)O)c2)nc2ccc(Oc3ccc(F)c(F)c3)cc21	56	3.4
40	–	> 10000	37	–	56	2.4	–	inactive	CCOc1cccc(Oc2ccc3nc(COc4cccc(C(=O)O)c4)n(C)c3c2)c1	22	3.3
1430	–	> 10000	21	–	125	1.7	12 (≈ 30.6 µM)	inactive	Cn1c(COc2cccc(C(=O)O)c2)nc2ccc(Oc3ccccc3F)cc21	–	–
64	170	–	52	–	79	2.8	–	–	Cl.Cn1c(COc2cccc(C(=O)O)c2)nc2ccc(Oc3ccc(F)c(Cl)c3)cc21	30	3.7
62	190	> 10000	28	69	61	2.3	–	–	Cc1cc(Oc2ccc3nc(COc4cccc(C(=O)O)c4)n(C)c3c2)ccc1F.Cl	49.4	3.5
1330	–	> 10000	19	85	76	1.8	–	–	Cn1c(COc2cccc(C(=O)O)c2)nc2ccc(Oc3c(F)cccc3F)cc21	–	–
188	380	> 10000	37	100	79	2.4	0.8 (≈ 1.93 µM)	–	Cn1c(COc2cccc(C(=O)O)c2)nc2ccc(Oc3ccc4ccoc4c3)cc21	48.3	2.5
230	–	–	52	88	86	2.1	–	–	Cn1c(COc2cccc(C(=O)O)c2)nc2ccc(Oc3cccc(F)c3F)cc21	35.8	4.3
21	190	> 10000	29	100	84	2.7	0.5 (≈ 1.23 µM)	–	Cc1cc(F)cc(Oc2ccc3nc(COc4cccc(C(=O)O)c4)n(C)c3c2)c1	58.3	1.7
23	370	> 10000	43	78	78	2.8	0.9 (≈ 2.11 µM)	–	Cn1c(COc2cccc(C(=O)O)c2)nc2ccc(Oc3cc(F)cc(Cl)c3)cc21	57.5	3.1
–	–	–	–	100	90	1.8	2	inactive	Cl.Cn1c(COc2cccc(C(=O)O)c2)nc2ccc(Oc3ccccc3)cc21	–	–
139	120	> 10000	37	83	111	2.4	11 (≈ 27.1 µM)	–	Cc1ccc(F)c(Oc2ccc3nc(COc4cccc(C(=O)O)c4)n(C)c3c2)c1	49.4	1.6
39	–	> 10000	17	64	84	2.5	0.6 (≈ 1.48 µM)	–	Cc1ccc(F)cc1Oc1ccc2nc(COc3cccc(C(=O)O)c3)n(C)c2c1	26.4	5.1
